System: human iPS cell Toe strain
Test: Effect to promote differentiation from human iPS cells into insulin-producing cells (insulin-positive cell rate, Reference Example 1)
Format: cell-based
Set-up: key to Activity: the sum of activity values at the two concentrations was obviously higher than the control untreated with compounds while being lower than the positive control was expressed as +; the sum was equivalent to the positive control was expressed as ++; the sum was higher than the positive control was expressed as +++
Conditions: activity intensity: sum of activity values (increment in insulin-positive cell rate) at 2 μM and 10 μM compared with positive control (compound of Synthesis Example 1)
Source text: The evaluation system of the effect (efficacy) to promote differentiation from human iPS cells into insulin-producing cells was constructed with reference to known information (Non Patent Document 6). Further, the medium used in each differentiation stage was also produced with reference to known information (differentiation media A to E (Media A to E) described in Non Patent Document 6 were used respectively for stages 1 to 5; however, a medium free from GLP-1 receptor agonist and nicotinamide was used as differentiation medium E).
In order to evaluate the efficacy of each compound, the compound of Synthesis Example 1 was used as a positive control, and dimethylsulfoxide (DMSO) (SIGMA, D2650) with a final concentration of 0.1% was used as a control untreated with compounds. Each compound was dissolved in DMSO, and two types of compound solutions were prepared so as to have final concentrations of 2 μM and 10 μM after the compound was added to the medium. In the following evaluation, the compound solutions were added to the medium to 0.1% that is the final concentration of DMSO.
First, induction from human iPS cell Toe strain (National Institutes of Biomedical Innovation, Health and Nutrition) into cells on day 7 of culture (2 days after replacement with differentiation medium C (cells in the differentiation process from FOXA2-positive primitive gut tube cells into PDX1-positive pancreatic progenitor cells)) was performed according to the method of Non Patent Document 6 for “inducing differentiation from human iPS cells into pancreatic β cells”, and the cells were collected and thereafter stored in liquid nitrogen using Bambanker (NIPPON Genetics Co, Ltd.) at 1×10^7 cells/mL/tube, to produce a cell stock for evaluation. The cell stock was dissolved at the start of the evaluation of efficacy, suspended in differentiation medium C for stage 3 (DMEM high glucose (Life technologies, 11965092), 0.25 μM SANT-1, 0.1 μM LDN193189 (Stemgent, 04-0074), 10 μM SB431542, 2 μM Retinoic acid (Stemgent, 04-0021), 1% B27 serum free supplement (Life technologies, 17504044) and thereafter seeded in a 96-well plate (Corning, #3340) coated with Synthemax II (Corning, #5656) at 1×10^5 cells/well. After culturing for 2 days, the medium was removed, and new differentiation medium C for stage 3 with the compound or only DMSO added was added thereto at 100 μL/well. After culturing for 2 days, the medium was removed, and new differentiation medium D for stage 4 (DMEM high glucose, 0.1 μM LDN193189, 5 μM TGF-β type I receptor kinase inhibitor II (Calbiochem 616452), 0.3 μM (−)-indolactam V (Enzo life science ALX-420-011-C300), 1% B27 serum free supplement) with the compound or only DMSO added was added thereto at 100 μL/well. After culturing for 2 to 3 days, the medium was removed, and new differentiation medium E for stage 5 (GLP-1 receptor agonist and nicotinamide-free; Knockout […] (Life technologies, 12660012), 1% B27 serum free supplement) with the compound or only DMSO added was added thereto at 200 μL/well. After culturing for 2 days, the medium was removed, and a 4% paraformaldehyde phosphorus acid buffer (Wako, 163-20145) was added thereto at 150 μL/well and left standing for 30 to 60 minutes at room temperature to fix the cells. A phosphorus acid buffer (PBS) (Takara, T9181) containing 1% Triton X-100 (Sigma, T8787) was left standing for 15 minutes at room temperature, then washed with PBS-T (Takara, T9183), and was blocked for 1 hour using 20% Blocking One (Nacalai tesque, Tokyo, Japan) diluted with PBS-T at room temperature. After the removal of Blocking One, guinea pig anti-insulin antibody (Abcam, ab7842) diluted 200-fold with 20% Blocking One was added thereto at 50 μL/well, followed by standing at 4° C. overnight. […]

SMILES | Activity
Cc1nc(NC(=O)C2CCC(=O)c3cccn32)sc1-c1cnc(OCC(C)C)c(Cl)c1 (centres unmarked) [Example 87] | +++
O=C1CCC(C(=O)Nc2ncc(-c3cccc(F)c3)s2)n2cccc21 (centres unmarked) [Example 15] | +
CC(C)(C)OC(=O)N1CC=C(c2cnc(NC(=O)C3CCC(=O)c4cccn43)s2)CC1 (centres unmarked) [Example 51] | +++
O=C(c1ccccc1)c1ccc(-c2cnc(NC(=O)C3CCC(=O)c4cccn43)s2)cc1 (centres unmarked) [Example 95] | +++
Cc1ccc(-c2cnc(NC(=O)C3(C)CCC(=O)c4cccn43)s2)cc1 (centres unmarked) [Example 66] | ++
O=C1CCC(C(=O)Nc2nc3ccc(-c4ccc(OC(F)F)cc4)cc3s2)n2cccc21 (centres unmarked) [Example 60] | ++
O=C1CCC(C(=O)Nc2ncc(-c3ccc(Cl)s3)s2)n2cccc21 (centres unmarked) [Example 56] | ++
COC(=O)c1ccc(-c2cnc(NC(=O)C3CCC(=O)c4cccn43)s2)cc1 (centres unmarked) [Example 2] | ++
O=C1CC(C(=O)Nc2ncc(-c3ccc(OC(F)(F)F)cc3)s2)n2cccc21 (centres unmarked) [Example 58] | ++
CC(C)COc1ncc(-c2cnc(NC(=O)C3CCC(=O)c4cccn43)s2)cc1Cl (centres unmarked) [Example 52] | +++
COc1ccccc1-c1ccc(-c2cnc(NC(=O)C3CCC(=O)c4cccn43)s2)cc1 (centres unmarked) [Example 22] | +++
COCCOc1ccc(-c2cnc(NC(=O)C3CCC(=O)c4cccn43)s2)cc1 (centres unmarked) [Example 38] | +++
CC(C)(C)OC(=O)N1CC=C(c2cnc(NC(=O)C3CCC(=O)c4cccn43)s2)C1 (centres unmarked) [Example 53] | ++
O=C1CCC(C(=O)Nc2ccc(-c3ccc(OC(F)(F)F)cc3)cc2F)n2cccc21 (centres unmarked) [Example 78] | ++
O=C1CCC(C(=O)Nc2ccc(-c3ccc(OC(F)F)cc3)cc2)n2cccc21 (centres unmarked) [Example 75] | +
O=C1CCC(C(=O)Nc2ncc(-c3ccc(F)cc3)s2)n2cccc21 (centres unmarked) [Example 16] | ++

SMILES | Activity
O=C1CCC(C(=O)Nc2ncc(-c3ccc(OCC(F)(F)F)cc3)s2)n2cccc21 (centres unmarked) [Example 45] | +++
Cc1nc(NC(=O)C2CCC(=O)c3cccn32)sc1-c1ccc2c(c1)OC(F)(F)O2 (centres unmarked) [Example 84] | +++
CN(C)C(=O)COc1ccc(-c2cnc(NC(=O)C3CCC(=O)c4cccn43)s2)cc1 (centres unmarked) [Example 8] | ++
O=C1CCC(C(=O)Nc2ccc(-c3ccc(OC(F)(F)F)c(Cl)c3)cc2)n2cccc21 (centres unmarked) [Example 76] | +
O=C1CCC(C(=O)Nc2ccc(-c3ccc(OC(F)(F)F)cc3)cc2)n2c(Br)ccc21 (centres unmarked) [Example 77] | +
CC1(C(=O)Nc2ncc(-c3cccc(OC(F)(F)F)c3)s2)CCC(=O)c2cccn21 (centres unmarked) [Example 72] | +++
O=C1CCC(C(=O)Nc2ncc(-c3ccc(OC(F)(F)F)c(Cl)c3)s2)n2cccc21 (centres unmarked) [Example 30] | +++
Cc1nc(NC(=O)C2CCC(=O)c3cccn32)sc1-c1ccc(OCc2ccccc2)c(F)c1 (centres unmarked) [Example 85] | +++
O=C1CCC(C(=O)Nc2ncc(-c3ccc(OC(F)(F)F)cc3)s2)n2cc(Cl)cc21 (centres unmarked) [Example 64] | ++
CC1(C(=O)Nc2ncc(-c3ccc(OC(F)(F)F)c(Cl)c3)s2)CCC(=O)c2cccn21 (centres unmarked) [Example 71] | +++
Cc1cc(-c2ccc3nc(NC(=O)C4CCC(=O)c5cccn54)sc3c2)ccc1OC(F)(F)F (centres unmarked) [Example 92] | +++
COC(=O)c1nc(NC(=O)C2CCC(=O)c3cccn32)sc1-c1ccc(OC(C)(C)C)cc1 (centres unmarked) [Example 100] | +
Cc1cc2n(c1)C(C(=O)Nc1ncc(-c3ccc(OC(C)(C)C)cc3)s1)CCC2=O (centres unmarked) [Example 63] | +++
O=C1CCC(C(=O)Nc2ncc(-c3ccc(OC(F)(F)F)cc3)s2)n2cccc21 (centres unmarked) [Example 9] | +++
O=C1CCC(C(=O)Nc2nc3ccc(-c4ccc(F)cc4)cc3s2)n2cccc21 (centres unmarked) [Example 94] | +++
O=C1CCC(C(=O)Nc2ncc(-c3ccc4ccccc4c3)s2)n2cccc21 (centres unmarked) [Example 24] | +

Reference: patent US20220339260A1, “METHOD FOR PRODUCING INSULIN-PRODUCING CELL USING DIHYDROINDOLIZINONE DERIVATIVES” (TOKYO INSTITUTE OF TECHNOLOGY, priority 2019, published 2022)
